Where two headings read alike, the source gives them in different places.
Biological target: TRPV1 receptor (UniProt Q8NER1)
Assay: Calcium mobilisation assay in CHO-K1 cells expressing the TRPV1 receptor (inhibition of capsaicin or low pH activation)
Assay type: cell-based, human, rat or guinea pig
Details: species not specified
Method: Chinese Hamster Ovary-K1 (CHO-K1) cells, transfected to express either the human, rat or guinea pig TRPV1 receptor, were grown in Minimal Essential Media (MEM) alpha medium without nucleosides supplemented with fetal calf serum (10%), 2 mM L-glutamine, 100 IU/mL penicillin, 100 μg/ml streptomycin and 350-700 μg/ml geneticin. All reagents were supplied by Invitrogen. Cells were grown in T-175 flasks or Costar black, clear-bottomed 96-well view plates and maintained at 37° C. in a 90% humidified incubator with an atmosphere of 5% CO2 and 95% air. The cells were passaged twice a week at a ratio of 1:10 to 1:20 to maintain steady growth. For experimentation, cells were harvested at approximately 80% confluency and plated onto view plates at 40,000 cells per well in 100 μL media and grown overnight.
Calcium Mobilisation Assay […]

Compound: CC(C)c1oc2c(ccc3[nH]c(C(C)(F)F)nc32)c(=O)c1-c1ccc(Cl)cc1 [Example 8, 7-(4-Chlorophenyl)-2-(1,1-difluoroethyl)-8-isopropyl-3H-chromeno[7,8-d]imidazol-6-one]
- IC50 (TRPV1 stimulated by capsaicin at EC80 concentration, read-out: IC50 (capsacin)): 68 nM
- IC50 (TRPV1 stimulated by low pH, final pH 5.5, read-out: IC50 (pH 5.5)): 54 nM

Source: patent US7732435B2, “Chromone derivatives useful as antagonists of VR1 receptors” (Novartis AG, priority 2005, dated 2010)
